These results are taken from article PMC5437670 (Journal of the American Chemical Society, 2017).

For assay [1], the target named is T1, Thermotoga maritima TmGH1 β-glucosidase (Thermotoga maritima, UniProt Q08638).
T1 sequence (Q08638 1-446): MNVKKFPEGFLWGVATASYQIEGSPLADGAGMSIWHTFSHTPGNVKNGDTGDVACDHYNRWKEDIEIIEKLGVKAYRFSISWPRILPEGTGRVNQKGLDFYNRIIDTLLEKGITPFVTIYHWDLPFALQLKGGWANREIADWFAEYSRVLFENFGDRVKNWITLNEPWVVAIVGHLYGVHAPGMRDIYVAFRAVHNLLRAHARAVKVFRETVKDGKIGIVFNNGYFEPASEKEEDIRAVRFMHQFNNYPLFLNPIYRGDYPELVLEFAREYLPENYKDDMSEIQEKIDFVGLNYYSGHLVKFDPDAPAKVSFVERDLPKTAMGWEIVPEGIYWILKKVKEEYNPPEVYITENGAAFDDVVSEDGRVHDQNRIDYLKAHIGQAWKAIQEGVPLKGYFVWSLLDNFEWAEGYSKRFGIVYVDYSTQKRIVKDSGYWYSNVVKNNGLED
The experiment in a line: Kinetic studies of reversible inhibition of TmGH1. In kind it is biochemical. Conditions: for inhibition of TmGH1 (in words): p-nitrophenyl β-D-glucopyranoside, Lineweaver–Burk method.

Assay [2] deals with recombinant human GAA (Myozyme), lysosomal α-glucosidase (Homo sapiens, UniProt P10253). The experiment in a line: Enzyme activity assay, apparent IC50 on GAA. Format: biochemical.

Take `OC[C@@H]1[C@@H](O)[C@H](O)[C@@H](O)CN1CCCCCOCC12CC3CC(CC(C3)C1)C2` [AMP-DNM (MZ-21), reference compound]: in assay [1], the “inhibition of TmGH1 (in words)” value is given as “low micromolar”.

For `OC[C@H]1NC[C@H](O)[C@@H](O)[C@@H]1O` [DNJ, deoxynojirimycin, reference compound], in assay [1], the Ki is 2.5 µM and the “inhibition of TmGH1 (in words)” value is “low micromolar”.

Turning to `[N-]=[N+]=NCCCCNC(=O)[C@@H]1[C@H]2[C@H](O)[C@@H](O)[C@H](O)[C@@H](CO)[C@@H]12` [Compound 5], the half-inhibitory concentration (IC50) in assay [2] is greater than 150 µM. In assay [2] (final concentrations up to 150 μM), the “inhibition of GAA (in words)” value is recorded as “No apparent inhibition”. In assay [1], this molecule registered a Ki of 0.0082 µM.

Regarding `CCOC(=O)[C@@H]1[C@H]2[C@H](O)[C@@H](O)[C@H](O)[C@@H](CO)[C@@H]12` [Compound 3], in assay [2], the IC50 is greater than 150 µM. Besides, in assay [1], the Ki was found to be 22.3 µM and the “inhibition of TmGH1 (in words)” value was “micromolar inhibition”.
